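Where inhibition never reached the appropriate level, the endpoint shown equals the highest concentration tested. Otherwise, values were interpolated linearly from a five-concentration, 48-hour dose response in 96-well plates. At the GI50, growth is halved. At the TGI there is no net growth.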
Assays:
Assay in all cases: growth of human tumour cells (NCI), 48 h
[1] = test system: SW-620 colon
[2] = test system: A498 renal
[3] = test system: SNB-75 CNS
[4] = test system: MALME-3M melanoma
[5] = test system: NCI/ADR-RES ovarian
[6] = test system: HOP-92 NSCLC
[7] = test system: SNB-19 CNS
[8] = test system: IGROV1 ovarian
[9] = test system: HS 578T breast
[10] = test system: OVCAR-8 ovarian
[11] = test system: MDA-MB-231 breast
[12] = test system: PC-3 prostate
[13] = test system: HL-60(TB) leukemia
[14] = test system: EKVX NSCLC
[15] = test system: OVCAR-4 ovarian
[16] = test system: OVCAR-5 ovarian
[17] = test system: UO-31 renal
[18] = test system: MDA-MB-435
[19] = test system: TK-10 renal
[20] = test system: M14 melanoma
[21] = test system: HCT-15 colon
[22] = test system: HOP-62 NSCLC
[23] = test system: NCI-H522 lung
[24] = test system: LOX IMVI melanoma
[25] = test system: NCI-H226 lung
[26] = test system: SF-295 CNS
[27] = test system: BT-549 breast
[28] = test system: CCRF-CEM leukemia
[29] = test system: HCC-2998 colon
[30] = test system: NCI-H460 lung
[31] = test system: MCF7 breast
[32] = test system: KM12 colon
[33] = test system: T-47D breast
[34] = test system: SF-539 CNS
[35] = test system: RXF 393 renal
[36] = test system: U251 CNS
[37] = test system: SK-MEL-5 melanoma
[38] = test system: NCI-H23 lung
[39] = test system: UACC-257 melanoma
[40] = test system: CAKI-1 renal
[41] = test system: 786-0 renal
[42] = test system: UACC-62 melanoma
[43] = test system: SR leukemia
[44] = test system: DU-145 prostate
[45] = test system: SK-OV-3 ovarian
[46] = test system: SF-268 CNS
[47] = test system: MOLT-4 leukemia
[48] = test system: SK-MEL-28 melanoma
[49] = test system: K-562 leukemia
[50] = test system: HT29 colon
[51] = test system: RPMI-8226 leukemia
[52] = test system: OVCAR-3 ovarian
[53] = test system: SN12C renal
[54] = test system: HCT-116 colon
[55] = test system: COLO 205 colon
[56] = test system: A549 NSCLC
[57] = test system: SK-MEL-2 melanoma
[58] = test system: ACHN renal

O=C(NCCN1CCC(O)CC1)c1cc2c(o1)C(=O)c1ccccc1C2=O
GI50 [1]: 0.31 µM | TGI [1]: 1.05 µM | GI50 [2]: 0.17 µM | TGI [2]: 0.34 µM | GI50 [3]: 0.323 µM | TGI [3]: 0.797 µM | GI50 [4]: 0.0272 µM | TGI [4]: 0.0885 µM | GI50 [5]: 1.52 µM | TGI [5]: 5.24 µM | GI50 [6]: 1.48 µM | TGI [6]: 3.19 µM | GI50 [7]: 0.27 µM | TGI [7]: 0.956 µM | GI50 [8]: 0.3 µM | TGI [8]: 1.02 µM | GI50 [9]: 0.322 µM | TGI [9]: 0.919 µM | GI50 [10]: 0.322 µM | TGI [10]: 1.41 µM | GI50 [11]: 0.377 µM | TGI [11]: 2.9 µM | GI50 [12]: 0.294 µM | TGI [12]: 2.39 µM | GI50 [13]: 0.282 µM | TGI [13]: 1.02 µM | GI50 [14]: 0.979 µM | TGI [14]: 2.49 µM | GI50 [15]: 0.182 µM | TGI [15]: 0.436 µM | GI50 [16]: 0.212 µM | TGI [16]: 0.384 µM | GI50 [17]: 0.666 µM | TGI [17]: 1.84 µM | GI50 [18]: 0.177 µM | TGI [18]: 0.324 µM | GI50 [19]: 2 µM | TGI [19]: 3.59 µM | GI50 [20]: 0.123 µM | TGI [20]: 0.268 µM | GI50 [21]: 0.21 µM | TGI [21]: 0.624 µM | GI50 [22]: 0.23 µM | TGI [22]: 0.51 µM | GI50 [23]: 0.284 µM | TGI [23]: 1.09 µM | GI50 [24]: 0.145 µM | TGI [24]: 0.337 µM | GI50 [25]: 0.214 µM | TGI [25]: 0.492 µM | GI50 [26]: 0.149 µM | TGI [26]: 0.288 µM | GI50 [27]: 0.17 µM | TGI [27]: 0.326 µM | GI50 [28]: 0.578 µM | TGI [28]: > 30.1 µM | GI50 [29]: 0.208 µM | TGI [29]: 0.451 µM | GI50 [30]: 0.192 µM | TGI [30]: 0.39 µM | GI50 [31]: 0.137 µM | TGI [31]: 0.338 µM | GI50 [32]: 0.481 µM | TGI [32]: 1.87 µM | GI50 [33]: 0.376 µM | TGI [33]: 1.85 µM | GI50 [34]: 0.211 µM | TGI [34]: 0.471 µM | GI50 [35]: 1.1 µM | TGI [35]: 2.32 µM | GI50 [36]: 0.335 µM | TGI [36]: 1.14 µM | GI50 [37]: 0.141 µM | TGI [37]: 0.275 µM | GI50 [38]: 0.0536 µM | TGI [38]: 0.257 µM | GI50 [39]: 0.176 µM | TGI [39]: 0.391 µM | GI50 [40]: 1.28 µM | TGI [40]: 2.66 µM | GI50 [41]: 1.44 µM | TGI [41]: 2.96 µM | GI50 [42]: 0.164 µM | TGI [42]: 0.308 µM | GI50 [43]: 0.396 µM | TGI [43]: 20.5 µM | GI50 [44]: 0.179 µM | TGI [44]: 0.325 µM | GI50 [45]: 1.51 µM | TGI [45]: 2.92 µM | GI50 [46]: 1.27 µM | TGI [46]: 3.55 µM | GI50 [47]: 0.383 µM | TGI [47]: 1.74 µM | GI50 [48]: 0.549 µM | TGI [48]: 1.74 µM | GI50 [49]: 0.378 µM | GI50 [50]: 0.296 µM | TGI [50]: 3.43 µM | GI50 [51]: 1.58 µM | TGI [51]: 4.72 µM | GI50 [52]: 0.242 µM | TGI [52]: 0.658 µM | GI50 [53]: 0.175 µM | TGI [53]: 0.354 µM | GI50 [54]: 0.301 µM | TGI [54]: 1.05 µM | GI50 [55]: 0.078 µM | TGI [55]: 0.228 µM | GI50 [56]: 0.213 µM | TGI [56]: 0.514 µM | GI50 [57]: 0.518 µM | TGI [57]: 2.21 µM

O=c1oc(-c2ccccc2)cc2cccc(O)c12
GI50 [1]: 58 µM | TGI [1]: > 100 µM | GI50 [2]: 21 µM | TGI [2]: 48 µM | GI50 [3]: 24.4 µM | TGI [3]: > 62.6 µM | GI50 [4]: 69.4 µM | TGI [4]: > 100 µM | GI50 [5]: 33.3 µM | TGI [5]: > 74.3 µM | GI50 [6]: 16.8 µM | TGI [6]: 61.6 µM | GI50 [7]: 30.6 µM | TGI [7]: > 100 µM | GI50 [8]: 23 µM | TGI [8]: > 100 µM | GI50 [9]: 23.8 µM | TGI [9]: 54.7 µM | GI50 [10]: 23.9 µM | TGI [10]: 52.4 µM | GI50 [11]: 29.2 µM | TGI [11]: > 85.7 µM | GI50 [12]: 40.6 µM | TGI [12]: > 100 µM | GI50 [13]: 63.5 µM | TGI [13]: > 100 µM | GI50 [14]: 4.22 µM | TGI [14]: > 40.6 µM | GI50 [15]: > 100 µM | TGI [15]: > 100 µM | GI50 [58]: 25.9 µM | TGI [58]: > 73.1 µM | GI50 [16]: 55.3 µM | TGI [16]: > 100 µM | GI50 [17]: 72 µM | TGI [17]: > 100 µM | GI50 [18]: 69 µM | TGI [18]: > 100 µM | GI50 [19]: 9.45 µM | TGI [19]: 39.8 µM | GI50 [20]: > 80.9 µM | TGI [20]: > 100 µM | GI50 [21]: 19.6 µM | TGI [21]: > 100 µM | GI50 [22]: 19.5 µM | TGI [22]: 40.9 µM | GI50 [23]: 49.9 µM | TGI [23]: > 100 µM | GI50 [24]: 29.7 µM | TGI [24]: > 100 µM | GI50 [25]: 19.4 µM | TGI [25]: 51 µM | GI50 [26]: 28.3 µM | TGI [26]: > 83.9 µM | GI50 [27]: 17.5 µM | TGI [27]: 59.1 µM | GI50 [28]: > 100 µM | TGI [28]: > 100 µM | GI50 [30]: 29 µM | TGI [30]: > 100 µM | GI50 [31]: > 28 µM | TGI [31]: > 100 µM | GI50 [32]: 20.8 µM | TGI [32]: > 69.3 µM | GI50 [33]: 13.6 µM | TGI [33]: > 100 µM | GI50 [34]: 0.927 µM | TGI [34]: 5.21 µM | GI50 [35]: 24.8 µM | TGI [35]: > 70.9 µM | GI50 [36]: 18 µM | TGI [36]: 35.1 µM | GI50 [37]: 24 µM | TGI [37]: > 100 µM | GI50 [38]: 19.6 µM | TGI [38]: 61.5 µM | GI50 [39]: > 71.9 µM | TGI [39]: > 100 µM | GI50 [40]: 37.3 µM | TGI [40]: > 81.7 µM | GI50 [41]: 28.7 µM | TGI [41]: > 76.9 µM | GI50 [42]: 24.5 µM | TGI [42]: > 64.3 µM | GI50 [43]: 43.5 µM | TGI [43]: > 100 µM | GI50 [44]: > 48.7 µM | TGI [44]: > 100 µM | GI50 [45]: 26.8 µM | TGI [45]: 68.6 µM | GI50 [46]: 30.1 µM | TGI [46]: > 89.9 µM | GI50 [47]: 66.3 µM | TGI [47]: > 100 µM | GI50 [48]: > 100 µM | TGI [48]: > 100 µM | GI50 [49]: > 67.3 µM | TGI [49]: > 100 µM | GI50 [50]: > 56.9 µM | TGI [50]: > 100 µM | GI50 [51]: 34 µM | TGI [51]: > 100 µM | GI50 [52]: 25.2 µM | TGI [52]: 85.8 µM | GI50 [53]: 19.4 µM | TGI [53]: 51.2 µM | GI50 [54]: 19.8 µM | TGI [54]: 45.2 µM | GI50 [55]: > 100 µM | TGI [55]: > 100 µM | GI50 [56]: 24.7 µM | TGI [56]: > 64.6 µM | GI50 [57]: > 100 µM | TGI [57]: > 100 µM

From PubChem BioAssay (NCI)
